Test results taken from US8202865B2, “Oxadiazole derivatives” (Merck Serono SA, priority 2007, dated 2012).
Structures can show the parent of a compound that is named as a salt.

Legend:
[1] = target: T1, S1P1 (Homo sapiens, UniProt P21453); assay: 35S-GTPγS binding, S1P1 membranes; assay type: biochemical; details: membranes from CHO cells expressing S1P1; 60 min 30° C.
T1 construct: expressed in transfected cells; host or cells: CHO cells (membranes)
Procedure, shortened: (§1)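 CHO-cell membranes expressing S1P1 or S1P3 (1-10 μg) incubated with compounds in 20 mM HEPES pH 7.4, 10 mM MgCl2, 140 mM NaCl, saponin, 0.2% BSA, 1.7 μM GDP and [35S]-GTPγS (20 μl of 1.5 nM added), 60 min at 30° C. Bound radioactivity expressed as % of S1P activation.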

[2] = target: T2, S1P3 (Homo sapiens, UniProt Q99500); assay: 35S-GTPγS binding, S1P3 membranes; assay type: biochemical; details: membranes from CHO cells expressing S1P3; 60 min 30° C.
T2 construct: expressed in transfected cells; host or cells: CHO cells (membranes)
Procedure, shortened: as §1

[3] = target: T1, S1P1; assay: Receptor binding assay, [33P]sphingosine 1-phosphate, membranes, WGA SPA beads; details: membranes from CHO cells expressing S1P1; 25 pM [33P]S1P; 60 min RT
Procedure, shortened: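 CHO-cell membranes expressing S1P1 incubated with 25 pM [33P]S1P in 50 mM HEPES pH 7.5, 5 mM MgCl2, 100 mM NaCl, 0.4% fatty acid-free BSA with WGA SPA beads for 60 min at RT. Bound radioactivity counted by scintillation proximity; specific binding defined using 1000-fold excess unlabeled S1P.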

T1 sequence (P21453 whole entry, species assumed): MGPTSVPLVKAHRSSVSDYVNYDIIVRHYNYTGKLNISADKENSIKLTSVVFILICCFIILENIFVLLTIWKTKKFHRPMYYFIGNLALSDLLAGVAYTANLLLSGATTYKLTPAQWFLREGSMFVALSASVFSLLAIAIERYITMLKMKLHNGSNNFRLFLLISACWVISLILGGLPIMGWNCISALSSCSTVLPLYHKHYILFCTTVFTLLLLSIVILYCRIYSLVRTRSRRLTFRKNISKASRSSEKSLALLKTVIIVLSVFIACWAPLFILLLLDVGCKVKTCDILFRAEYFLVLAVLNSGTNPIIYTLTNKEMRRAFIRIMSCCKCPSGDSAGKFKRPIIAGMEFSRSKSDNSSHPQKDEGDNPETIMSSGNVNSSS
T2 sequence (Q99500 whole entry, species assumed): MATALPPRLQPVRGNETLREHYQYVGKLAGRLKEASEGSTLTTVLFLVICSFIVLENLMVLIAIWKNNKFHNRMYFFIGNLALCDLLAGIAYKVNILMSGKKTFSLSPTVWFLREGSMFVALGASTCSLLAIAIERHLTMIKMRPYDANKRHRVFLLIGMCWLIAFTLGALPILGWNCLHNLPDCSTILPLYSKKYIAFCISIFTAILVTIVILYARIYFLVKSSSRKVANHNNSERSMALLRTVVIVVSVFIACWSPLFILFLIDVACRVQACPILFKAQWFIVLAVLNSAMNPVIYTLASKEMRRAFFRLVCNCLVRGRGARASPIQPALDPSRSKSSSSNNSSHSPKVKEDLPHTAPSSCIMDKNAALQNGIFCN

Row | SMILES | EC50 [1] [nM] | EC50 [2] [nM] | Ki [3] [nM]
1 | CCS(=O)(=O)Nc1cc(-c2nc(-c3ccc(C(=O)O)c(F)c3)no2)ccc1N1CCCCC1C (stereo not drawn) [Example 67, 4-{5-[3-[(ethylsulfonyl)amino]-4-(2-methylpiperidin-1-yl)phenyl]-1,2,4-oxadiazol-3-yl}-2-fluorobenzoic acid] | 72 | 1750 | 67
2 | CCc1ccccc1-c1ccc(-c2nc(-c3ccc(C(=O)O)c(F)c3)no2)cc1COC [Example 78, 4-{5-[2′-ethyl-2-(methoxymethyl)biphenyl-4-yl]-1,2,4-oxadiazol-3-yl}-2-fluorobenzoic acid] | 15 | 3030 | 2
3 | Cc1cc(-c2nc(-c3ccc(C(=O)O)c(F)c3)no2)ccc1-c1cscc1C [Example 9, 2-fluoro-4-{5-[3-methyl-4-(4-methyl-3-thienyl)phenyl}-1,2,4-oxadiazol-3-yl]benzoic acid] | 136 | > 30000 | 40
4 | Cc1ccccc1-c1ccc(-c2nc(-c3ccc(C(=O)O)c(F)c3)no2)cc1C [Example 4, 4-[5-(2,2′-dimethylbiphenyl-4-yl)-1,2,4-oxadiazol-3-yl]-2-fluorobenzoic acid] | 317 | > 30000 | 126
5 | COc1cc(-c2nc(-c3ccc(C(=O)O)c(F)c3)no2)ccc1-c1cscc1C [Example 12, 2-fluoro-4-{5-[3-methoxy-4-(4-methyl-3-thienyl)phenyl]-1,2,4-oxadiazol-3-yl}benzoic acid] | 148 | > 30000 | 60
6 | COCc1cc(-c2nc(-c3ccc(C(=O)O)c(F)c3)no2)ccc1-c1cc(F)ccc1C [Example 84, 2-fluoro-4-{5-[5′-fluoro-2-(methoxymethyl)-2′-methylbiphenyl-4-yl]-1,2,4-oxadiazol-3-yl}benzoic acid] | 34 | 2800 | 55
7 | Cc1ccccc1-c1ccc(-c2nc(-c3ccc(C(=O)O)c(F)c3)no2)cc1CN1CCOCC1 [Example 75, 2-fluoro-4-{5-[2′-methyl-2-(morpholin-4-ylmethyl)biphenyl-4-yl]-1,2,4-oxadiazol-3-yl}benzoic acid, Trifluoroacetic acid salt] | 182 | 1350 | 177
8 | COCc1cc(-c2nc(-c3ccc(C(=O)O)c(F)c3)no2)ccc1-c1ccccc1OC [Example 79, 2-fluoro-4-{5-[2′-methoxy-2-(methoxymethyl)biphenyl-4-yl]-1,2,4-oxadiazol-3-yl}benzoic acid] | 208 | > 20000 | 74
9 | CC1CCCCN1c1ccc(-c2nc(-c3ccc(C(=O)O)c(F)c3)no2)cc1C(F)(F)F (stereo not drawn) [Example 19, 2-fluoro-4-{5-[4-(2-methylpiperidin-1-yl)-3-(trifluoromethyl)phenyl]-1,2,4-oxadiazol-3-yl}benzoic acid] | 347 | > 30000 | 110
10 | Cc1ccccc1-c1ccc(-c2nc(-c3ccc(NCC(=O)O)c(F)c3)no2)cc1C [Example 56, N-{4-[5-(2,2′-dimethylbiphenyl-4-yl)-1,2,4-oxadiazol-3-yl]-2-fluorophenyl}glycine] | 70 | 14500 | 10

Continued, values first:

Row | EC50 [1] [nM] | EC50 [2] [nM] | Ki [3] [nM] | SMILES
11 | 155 | > 20000 | 48 | COCc1cc(-c2nc(-c3ccc(C(=O)O)c(F)c3)no2)ccc1-c1ccccc1C(F)(F)F [Example 86, 2-fluoro-4-{5-[2-(methoxymethyl)-2′-(trifluoromethyl)biphenyl-4-yl]-1,2,4-oxadiazol-3-yl}benzoic acid]
12 | 19 | > 20000 | 39 | Cc1ccccc1-c1ccc(-c2nc(-c3ccc(C(N)=O)c(F)c3)no2)cc1C [Example 171, 4-[5-(2,2′-dimethylbiphenyl-4-yl)-1,2,4-oxadiazol-3-yl]-2-fluorobenzamide]
13 | 63 | 1250 | 37 | COCc1cc(-c2nc(-c3cccc(C(=O)O)c3)no2)ccc1-c1ccccc1C [Example 92, 3-{5-[2-(methoxymethyl)-2′-methylbiphenyl-4-yl]-1,2,4-oxadiazol-3-yl}benzoic acid]
14 | 3.3 | 4490 | 1 | COCc1cc(-c2nc(-c3cccc(C(=O)NCCNC(C)=O)c3)no2)ccc1-c1ccccc1C [Example 184, N-[2-(acetylamino)ethyl]-3-{5-[2-(methoxymethyl)-2′-methylbiphenyl-4-yl]-1,2,4-oxadiazol-3-yl}benzamide]
15 | 1.5 | 754 | 2 | CCc1ccccc1-c1ccc(-c2nc(-c3ccc(F)c(CN(C)CC(=O)O)c3)no2)cc1COC [Example 147, N-(5-{5-[2′-ethyl-2-(methoxymethyl)biphenyl-4-yl]-1,2,4-oxadiazol-3-yl}-2-fluorobenzyl)-N-methylglycine, Hydrochloride salt]
